Experiments:
[1] = target: T1, 6His-Tev-LRRK2 (1326-2527) (Homo sapiens, UniProt Q5S007); test: LRRK2 peptide substrate assay; format: biochemical; settings: mean pIC50 of multiple test results; stated as threshold; read-out: pIC50 in the LRRK2 peptide substrate assay (bounds) (converted)
T1 construct: A LRRK2 cDNA encoding residues 1326-2527 was received from Dundee University; made in house; host or cells: Spodoptera frugiperda (Sf9) insect cells, baculovirus (pFB-HTb)
T1 sequence (Q5S007 1326-2527): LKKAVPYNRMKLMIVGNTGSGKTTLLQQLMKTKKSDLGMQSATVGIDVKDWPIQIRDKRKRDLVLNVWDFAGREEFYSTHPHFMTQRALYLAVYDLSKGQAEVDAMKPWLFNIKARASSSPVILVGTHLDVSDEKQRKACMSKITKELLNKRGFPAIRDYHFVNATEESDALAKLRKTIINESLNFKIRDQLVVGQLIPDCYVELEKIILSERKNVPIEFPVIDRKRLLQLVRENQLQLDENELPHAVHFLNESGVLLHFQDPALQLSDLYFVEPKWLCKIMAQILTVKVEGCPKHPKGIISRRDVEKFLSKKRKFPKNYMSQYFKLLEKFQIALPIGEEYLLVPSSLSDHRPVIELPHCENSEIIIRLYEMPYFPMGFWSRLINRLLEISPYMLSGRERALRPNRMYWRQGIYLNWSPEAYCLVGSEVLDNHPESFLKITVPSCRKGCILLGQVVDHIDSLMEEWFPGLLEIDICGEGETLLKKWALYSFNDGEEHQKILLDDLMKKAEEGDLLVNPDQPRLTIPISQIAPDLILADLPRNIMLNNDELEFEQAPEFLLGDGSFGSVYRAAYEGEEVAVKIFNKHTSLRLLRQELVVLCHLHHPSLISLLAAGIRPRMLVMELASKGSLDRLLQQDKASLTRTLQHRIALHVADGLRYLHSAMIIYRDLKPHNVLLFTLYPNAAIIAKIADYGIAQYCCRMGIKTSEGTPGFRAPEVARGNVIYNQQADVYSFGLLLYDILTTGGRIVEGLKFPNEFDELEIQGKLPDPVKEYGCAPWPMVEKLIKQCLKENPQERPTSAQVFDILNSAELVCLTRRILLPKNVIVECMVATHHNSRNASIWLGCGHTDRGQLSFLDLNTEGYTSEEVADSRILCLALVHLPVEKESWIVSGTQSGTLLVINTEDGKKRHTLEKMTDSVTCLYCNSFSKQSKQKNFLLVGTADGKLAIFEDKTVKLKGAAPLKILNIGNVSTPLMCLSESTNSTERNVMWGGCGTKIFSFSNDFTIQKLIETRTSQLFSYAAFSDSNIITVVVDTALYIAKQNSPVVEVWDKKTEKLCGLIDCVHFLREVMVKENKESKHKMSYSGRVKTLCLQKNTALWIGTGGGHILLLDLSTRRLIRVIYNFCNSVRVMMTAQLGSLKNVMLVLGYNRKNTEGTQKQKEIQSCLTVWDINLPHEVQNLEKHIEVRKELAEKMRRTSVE
How it was run: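 Compound (1:4 series, top 30 μM final) preincubated 30 min at RT with the enzyme solution (80 nM) in pH 7.2 Hepes, 10 mM MgCl2 buffer. Reaction was started with substrate solution (2 μM Biotin-LRRKtide, ATP at Km) and run 1–2 h at RT. Phospho-peptide detected by TR-FRET (Eu/APC, 665/620 nm) after EDTA stop.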

[2] = target: T1, 6His-Tev-LRRK2 (1326-2527); test: LRRK2 AlphaScreen desensitised protein substrate assay; format: biochemical; settings: mean pIC50 of multiple test results; stated as threshold; read-out: pIC50 in the LRRK2 alphascreen desensitised protein substrate assay (bounds) (converted)
How it was run: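 Compounds (1:4 series, top final 30 μM) were preincubated 30 min at room temperature with 6His-Tev-LRRK2 (1326-2527) solution (80 nM) in Hepes pH 7.2, 10 mM MgCl2. Substrate solution held 200 nM GST-PS-Moesin (400-577) and 2 mM ATP, and the reaction ran 20 min. Phospho-Moesin Thr558 was read by AlphaLisa antibody-bead detection after 2 h.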

IC50 [1] [µM]	Structure (SMILES)	IC50 [2] [µM]
≤ 0.1	Cc1nocc1NC(=O)c1cc(-c2cnn(C)c2)c(C(=O)N2CCOCC2)cc1OCc1ccccc1 [Example 25, N-(3-Methyl-4-isoxazolyl)-5-(1-methyl-1H-pyrazol-4-yl)-4-(4-morpholinylcarbonyl)-2-[(phenylmethyl)oxy]benzamide]	≤ 25.1
≤ 0.1	O=C(Nc1ccnnc1)c1cc(Br)c(CN2CCOCC2)cc1OCc1ccccc1 [Example 1, 5-Bromo-4-(4-morpholinylmethyl)-2-[(phenylmethyl)oxy]-N-4-pyridazinylbenzamide]	≤ 25.1

— patent US9365551B2, “2-(benzyloxy) benzamides as LRRK2 kinase inhibitors” (Glaxo Group Limited, priority 2010, dated 2016)
